# Data taken from patent US20020035061A1, “COMPOSITIONS AND METHODS FOR TREATING INFECTIONS USING CATIONIC PEPTIDES ALONE OR IN COMBINATION WITH ANTIBIOTICS” (priority 1996, published 2002).
# Read-outs that look alike come from different tables or passages of the source.
# Experiments:
# Experiment in all cases: microbe, parasite or virus in culture
# Type in all cases: cell-based
# [1] = system: microorganisms with acquired resistance; conditions: for Peptide MIC: in µg/mL
# bacterial isolates = conditions: combination with Ampicillin
# [2] = system: inherently resistant microorganisms
# [3] = Staphylococcus aureus, read-out: MIC alone (antibiotic agent), S. aureus
# [4] = Staphylococcus haemolyticus, read-out: MIC alone (antibiotic agent), S. haemolyticus
compound,measurement,setting,value
KKWWRRVLKGLSSGPALSNV [MBI 21A10],Peptide MIC,"[1]; S. aureus, combination with Mupirocin",32
GKPRPYSPIPTSPRPIRY [MBI 31],FIC,bacterial isolates; S. epidermidis SE8416,0.52
same,FIC,bacterial isolates; S. epidermidis SH8575,0.27
same,FIC,bacterial isolates; S. haemolyticus SA7797,0.50
same,FIC,bacterial isolates; S. haemolyticus SA7817,0.26
same,FIC,bacterial isolates; S. haemolyticus SA7818,0.52
same,FIC,bacterial isolates; S. haemolyticus SA7834,0.52
same,FIC,bacterial isolates; S. haemolyticus SA7835,0.50
same,FIC,bacterial isolates; S. haemolyticus SH8597,1.00
same,Peptide MIC,"[1]; S. aureus, combination with Erythromycin",0.125
CC(C)(O/N=C(\C(=O)N[C@@H]1C(=O)N2C(C(=O)[O-])=C(C[n+]3ccccc3)CS[C@H]12)c1csc(N)n1)C(=O)O [Ceftazidime],MIC comb. (antibiotic agent),"[1]; A. calcoaceticus, with MBI 26",2 µg/mL
same,MIC comb. (antibiotic agent),"[1]; A. calcoaceticus, with MBI 29",2 µg/mL
same,MIC,"[1]; Acinetobacter calcoaceticus, read-out: MIC alone (antibiotic agent), A. calcoaceticus",32 µg/mL
same,MIC comb. (antibiotic agent),"[1]; P. aeruginosa, with MBI 29",16 µg/mL
same,MIC,"[1]; Pseudomonas aeruginosa, read-out: MIC alone (antibiotic agent), P. aeruginosa",64 µg/mL
CC[C@H]1OC(=O)[C@H](C)[C@@H](O[C@H]2C[C@@](C)(OC)[C@@H](O)[C@H](C)O2)[C@H](C)[C@@H](O[C@@H]2O[C@H](C)C[C@H](N(C)C)[C@H]2O)[C@](C)(O)C[C@@H](C)C(=O)[C@H](C)[C@@H](O)[C@]1(C)O [Erythromycin],MIC,[1]; [3],8 µg/mL
same,MIC,"[1]; Staphylococcus epidermidis, read-out: MIC alone (antibiotic agent), S. epidermidis",8 µg/mL
same,MIC,[1]; [4],8 µg/mL
same,MIC,"[2]; Acinetobacter calcoaceticus, read-out: Erythromycin MIC + MBI 26, A. calcoaceticus AC001",1 µg/mL
same,MIC,"[2]; Klebsiella pneumoniae, read-out: Erythromycin MIC + MBI 26, K. pneumoniae KP001",0.25 µg/mL
same,MIC,"[2]; Klebsiella pneumoniae, read-out: Erythromycin MIC + MBI 26, K. pneumoniae KP002",0.5 µg/mL
same,MIC,"[2]; Klebsiella pneumoniae, read-out: Erythromycin MIC Alone, K. pneumoniae KP002",256 µg/mL
same,MIC,"[2]; Pseudomonas aeruginosa, read-out: Erythromycin MIC + MBI 26, P. aeruginosa PA041",4 µg/mL
same,MIC,"[2]; Pseudomonas aeruginosa, read-out: Erythromycin MIC Alone, P. aeruginosa PA041",128 µg/mL
COc1cccc(OC)c1C(=O)N[C@@H]1C(=O)N2[C@@H]1SC(C)(C)[C@@H]2C(=O)O [Methicillin],MIC comb. (antibiotic agent),"[1]; S. haemolyticus, with MBI 26",0.25 µg/mL
same,MIC,[1]; [4],64 µg/mL
CC1(C)S[C@@H]2[C@H](NC(=O)[C@H](N)c3ccccc3)C(=O)N2[C@H]1C(=O)O [Ampicillin],MIC comb. (antibiotic agent),"[1]; S. aureus, with MBI 26",0.25 µg/mL
same,MIC comb. (antibiotic agent),"[1]; S. haemolyticus, with MBI 26",0.25 µg/mL
same,MIC,[1]; [3],2 µg/mL
